The target of one data set is T1, CYP2E1 (Homo sapiens, UniProt P05181).
T1 construct: tissue Gentest Corp. (Woburn, Mass.); host or cells: pooled human liver microsomes
In words: CYP inhibition in HLM: chlorzoxazone 6-hydroxylation. The following applies: 10 or 50 μM. In kind it is in vitro ADME. The procedure:
The incubations were carried out in test tubes (12.0×75 mm). The incubation mixtures (250 μL) contained 0.5 mg of HLM protein, 50 (CYP1A2 and CYP2E1) or 25 (CYP2C9, CYP2C19, CYP2D6 and CYP3A4) pmol of recombinant human CYPs, Compound 1 (10 or 50 μM), probe substrate (R—, S-warfarin, chlorzoxazone, S-mephenyloin, or bufuralol) at different concentrations, and 0.5 mg of NADPH in 50 mM Tris buffer containing 15 mM MgCl2 (pH 7.4). Compound 1 was added to the reaction mixture 5 minutes prior to the addition of the probe substrate. […]
The quantification was based on the calibration curves, and the quality control (QC) samples were applied to ensure the quality of the experiments. […]
2. […] 6-hydroxychlorzoxazone was monitored by UV at 280 nm.
Data were acquired and analyzed by ChemStation (Version 6.03, Hewlett Packard, Waldbronn, Germany) for 6-, 7-, and 10-hydroxywarfarin and 6-hydroxychlorzoxazone, and MacQuan (Version 1.6, PE Biosystem, Foster City, Calif.) for 1′-hydroxybufuralol and 4′-hydroxymephenytoin. Quantification was based on peak area ratios of metabolites over the respective IS against the respective concentration of the metabolites. […] The metabolic rates were determined using Excel (Microsoft Office 97, Microsoft Corporation, Redmond, Wash.) or SigmaPlot (Version 6.00, SPSS Inc. Chicago, Ill.). […]

Another data set deals with CYP2C19/2C8/2C9. The data set is described as follows: CYP induction in primary human hepatocytes, Western immunoblotting: CYP2C19/2C8/2C9. The format is cell-based. The following applies: 10 or 50 μM for 72 hours; hepatocytes from three donors. Here is the method: Upon receiving a primary culture of human hepatocytes in 6-well plates, the culture medium containing streptomycin/penicillin was refreshed (2 ml/well). […] The culture medium and testing compounds were replenished every 24 hours.
At the end of the treatment, the cells were harvested into 1 mL of phosphate-buffered saline (PBS) after washing twice. The cells were precipitated by centrifugation, and were resuspended in PBS (approximately 50 μL).
The membrane was blocked by 5% non-fat dried milk (NFDM) blotting buffer (PBS containing 0.05% Tween 20) at 4° C. overnight. […] The membrane was rinsed six times (10 minutes each time) with the blotting buffer, and exposed to 1:10,000 diluted secondary antibodies labeled with horseradish peroxidase for 1 hour at room temperature. After being extensively rinsed with the blotting buffer, the membrane was exposed to the substrate of peroxidase (enhanced chemiluminescence reagent). CYP proteins were detected by […] using an X-ray developer.

Another data set concerns major CYP expression. In words: CYP induction in primary hepatocyte cultures (summary statement, major CYPs). The format is cell-based, human. To be noted: 72 hour exposure to 10 or 50 μM; primary hepatocyte cultures from three subjects. Here is the method: Upon receiving a primary culture of human hepatocytes in 6-well plates, the culture medium containing streptomycin/penicillin was refreshed (2 ml/well). […] Compound 1 stock solution was added to the culture medium at a 1:400 ratio (v/v). The culture medium and testing compounds were replenished every 24 hours.
At the end of the treatment, the cells were harvested into 1 mL of phosphate-buffered saline (PBS) after washing twice. The cells were precipitated by centrifugation, and were resuspended in PBS (approximately 50 μL). The sample preparation, after mixing with […] of Laemmli buffer (62.5 mM Tris-HCl containing 2% SDS, 25% glycerol, and 0.01% bromophenol, pH 6.8) and being rocked for 2-4 hours, was mixed with 10 μL of 2-mercaptoethanol, and heated at 90° C. for 10 minutes before electrophoresis.
Proteins were resolved in a 12% SDS-PAGE gel using a mini gel apparatus at a constant voltage ([…]) for 70-80 minutes, and transferred onto a polyvinylidene difluoride (PVDF) membrane using a membrane-transferring unit at a constant voltage ([…]) for 60 minutes. The membrane was blocked by 5% non-fat dried milk (NFDM) blotting buffer (PBS containing 0.05% Tween 20) at 4° C. overnight. […] CYP proteins were detected by […] using an X-ray developer.

The structures appear in SMILES notation.

T1 sequence (P05181 whole entry): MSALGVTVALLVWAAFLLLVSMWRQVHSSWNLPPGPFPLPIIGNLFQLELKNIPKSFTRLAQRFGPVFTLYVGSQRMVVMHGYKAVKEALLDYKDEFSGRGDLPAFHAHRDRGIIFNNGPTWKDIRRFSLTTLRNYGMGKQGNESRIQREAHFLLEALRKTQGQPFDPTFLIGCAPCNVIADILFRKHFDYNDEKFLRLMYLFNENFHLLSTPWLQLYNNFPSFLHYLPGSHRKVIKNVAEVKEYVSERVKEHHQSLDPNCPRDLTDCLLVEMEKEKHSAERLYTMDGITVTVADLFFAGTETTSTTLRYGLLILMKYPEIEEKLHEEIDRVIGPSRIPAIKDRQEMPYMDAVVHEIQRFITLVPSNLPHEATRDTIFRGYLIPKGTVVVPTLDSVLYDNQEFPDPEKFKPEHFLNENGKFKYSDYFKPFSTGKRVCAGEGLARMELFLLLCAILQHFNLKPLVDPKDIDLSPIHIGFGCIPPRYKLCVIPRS

Turning to `CNC(=O)Cc1ccc2ccn(C3CCN(CCc4ccccc4F)CC3)c2c1` [Compound 1, N-methyl-[1-[1-(2-fluorophenethyl)piperidine-4-yl]-1H-indol-6-yl] acetamide], the “inhibitory effect on CYP2E1 activity (in words)” value on CYP2E1 was “no inhibitory effect”. Besides, the “expression of CYP2C19/2C8/2C9 (Western immunoblotting)” value in the data set with CYP2C19/2C8/2C9 was “did not increase”. Moreover, the “Induction of major CYP expression (immunochemical detection)” value with major CYP expression is listed as “not detected”.

These data come from patent US20050033056A1, “Hydroxylated indole derivatives and uses thereof” (priority 2001, published 2005).
